pIC50: −log10 of the molar value. Counter-ions that a name gives are not always drawn.

In general, pIC50 refers to −log10 of the IC50, conventionally taken in molar units.

The target in the first assay is T1, HIV protease (Human immunodeficiency virus type 1 group M subtype B, UniProt P04585).
T1 construct: HIV protease consists of 99 amino acids and is evidently split off by itself from the pol polyprotein
Description: Inhibition of HIV protease (cleavage of H-Ser-Phe-Asn-Phe-Opr-Gln-Ile-OH, HPLC). It is filed as biochemical. The note with it: inhibitor concentration at which the cleavage rate is halved; pH 6, 2 hours. From the text:
The compounds of the formula (I) according to the invention have enzyme-inhibiting properties. In particular, they inhibit the action of retroviral aspartyl proteases, such as that of HIV protease. Their enzyme-inhibitory action, which is in the milli- to subnanomolar range, can be determined as follows.
The heptapeptide: H-Ser-Phe-Asn-Phe-Pro-Gln-Ile-OH (P. L. Darke et al., Biophys. Res. Commun. 156 (1988) 297-303), inter alia, has hitherto been used as the substrate of HIV protease. HIV protease cleaves the substrate here between the second Phe and Pro.
General instructions for testing inhibitors of HIV proteases: a) Preparation of the substrate solution:
2 mg of H-Ser-Phe-Asn-Phe-Opr-Gln-Ile-OH (H-Opr-OH=5-oxaproline) are dissolved in 1 ml of MGTE15 buffer (use of ultrasound if necessary) and the solution is then filtered over a sterile filter (0.45 μm). […]
b) Preparation of the inhibitor solution:
2.5 times the desired molarity of the inhibitor per ml of solution are weighed out and dissolved in DMSO (10% of the final volume). The solution is diluted to the final volume with MGTE15 buffer and filtered over a sterile filter (0.45 μm). […]
c) Preparation of the protease solution:
5 μl of the HIV protease solution are diluted with MGTE25 buffer as required.
10 μl portions of the substrate solution are pipetted into test-tubes (16×100) with a screw cap. For the blank experiment, 10 μl of MGTE15 buffer containing 10% of DMSO are pipetted into a test-tube. 10 μl portions of the inhibitor solutions are added to the other test-tubes. The mixtures are incubated at 37° C. for 5-10 minutes and 5 μl of the protease solution are then added to each sample, After reaction at 35° C. for 2 hours, 10 or 20 μl (depending on the sensitivity of the HPLC apparatus) of each sample are then pipetted off, introduced into microvials and diluted with 120 μl of the HPLC mobile phase. […]
e) Conditions for the HPLC analysis:
20% (weight/weight) of aceto-
Column: Merck ®LICHROSORB RP18 (5 μm) 250×4
Column temperature: 42° C.
Detector parameters: 215 nm, 0.08 AUF, 18.2° C.
Analysis time: 11 minutes
Retention time of the substrate: 8.1 minutes
Retention time of the N-terminal tetrapeptide: 3.9 minutes
20 mM morpholinoethanesulfonic acid (MES)
15% (weight/volume) of glycerol
0.1% (volume/volume) of Triton ×100
1 mM phenylmethylsulfonyl fluoride (PMSF)
25% (weight/volume) of glycerol, additionally 1 mM dithiothreitol (DTT) The MES, EDTA, NaCl, DTT and PMSF are weighed into a conical flask and dissolved in a little water and the pH is brought to 6. The corresponding amount of glycerol is weighed into a measuring flask and ®Triton ×100 is pipetted in. The aqueous solution is transferred to the measuring flask and made up to the mark with water.
A 0.1M solution is prepared from orthophosphoric acid (FLUKA extra pure analytical grade). This solution is brought to exactly pH 2.5 with triethylamine (FLUKA extra pure analytical grade). The weight of the solution is determined and the corresponding amount of acetonitrile (fume cupboard) is weighed in. The mixture is mixed thoroughly and degassed with helium 5.0 for about 5 minutes.
Under the conditions chosen here, heptapeptides are separated from the N-terminal tetrapeptide formed during enzymatic cleavage. The percentage content of the tetrapeptide peak in respect of the sum of tetrapeptide+heptapeptide corresponds to the cleaving rate. The following IC50 values indicate the inhibitor concentration at which the cleavage rate is halved.
In the case of `CC(C)[C@H](NC(=O)[C@H](Cc1ccccc1)NC(=O)[C@H]1CC[C@@H](NC(=O)OC(C)(C)C)CC1)C(=O)N[C@@H](Cc1ccccc1)[C@H](O)[C@@H](O)[C@H](Cc1ccccc1)NC(=O)[C@@H](NC(=O)[C@H](Cc1ccccc1)NC(=O)[C@H]1CC[C@@H](NC(=O)OC(C)(C)C)CC1)C(C)C` [Example 50, N,N'-bis-(4Z -N-tert.-Butoxycarbonylamino)-cyclohexanecarbonyl-L-phenylalanyl-L-valyl)-2S, 5S-diamino-1,6-diphenyl-4S, 5S-diol dihydrochloride], the negative logarithm of the IC50 (pIC50) was 7.35.

The same assay, now with this note: inhibitor concentration at which the cleavage rate is halved; pH 6, 2 hours; read-out: IC50.
In the case of `CC(C)[C@H](NC(=O)[C@H](Cc1ccccc1)NC(=O)OC(C)(C)C)C(=O)N[C@@H](Cc1ccccc1)[C@@H](O)[C@H](O)[C@H](Cc1ccccc1)NC(=O)[C@@H](NC(=O)[C@H](Cc1ccccc1)NC(=O)OC(C)(C)C)C(C)C` [Example 1, N,N,-bis-(tert.-Butoxycarbonyl-L-phenylalanyl-L-valyl)-2S,5S-diamino-1,6-diphenylhexane-3R,4R-diol], the pIC50 is 8.00. Still for that read-out and setting: the value for `CC(C)[C@H](NC(=O)[C@H](CCC(=O)OCc1ccccc1)NC(=O)OC(C)(C)C)C(=O)N[C@@H](Cc1ccccc1)[C@H](O)[C@@H](O)[C@H](Cc1ccccc1)NC(=O)[C@@H](NC(=O)[C@H](CCC(=O)OCc1ccccc1)NC(=O)OC(C)(C)C)C(C)C` [Example 84, N,N,-bis-<(N-tert.-Butoxycarbonyl-O-benzyl-L-glutamyl)-L-valyl>-2S,5S-diamino-1,6-diphenylhexane-3S,4S-diol] was 6.96; that for `CC[C@H](C)[C@H](NC(=O)[C@H](Cc1cccc2ccccc12)CS(=O)(=O)C(C)(C)C)C(=O)N[C@@H](Cc1ccccc1)[C@@H](O)[C@H](O)[C@H](Cc1ccccc1)NC(=O)[C@@H](NC(=O)[C@H](Cc1cccc2ccccc12)CS(=O)(=O)C(C)(C)C)[C@@H](C)CC` [Example 156, N,N'-bis-(<2S-(1,1-Dimethylethylsulfonylmethyl)-3-(1-naphthyl)-propionyl>-L-isoleucyl)-2S,5S-diamino-1,6-diphenylhexane-3R,4R-diol] was 7.52. The same measure, in the same setting: to `CC(C)[C@H](NC(=O)[C@@H](CNC(=O)OC(C)(C)C)Cc1ccccc1)C(=O)N[C@@H](Cc1ccccc1)[C@@H](O)[C@H](O)[C@H](Cc1ccccc1)NC(=O)[C@@H](NC(=O)[C@@H](CNC(=O)OC(C)(C)C)Cc1ccccc1)C(C)C` [Example 106, N,N,-bis-<(2R-Benzyl-3-tert.-butoxycarbonylamino)-propionly-L-valyl>-2S,5S-diamino-1,6-diphenylhexane-3R,4R-diol] belongs 7.07; to `CC(C)[C@H](NC(=O)[C@@H](N)Cc1ccc(O)cc1)C(=O)N[C@@H](Cc1ccccc1)[C@H](O)[C@@H](O)[C@H](Cc1ccccc1)NC(=O)[C@@H](NC(=O)[C@@H](N)Cc1ccc(O)cc1)C(C)C` [Example 78, N,N'-bis-<L-Tyrosyl-L-valyl>-2S,5S-diamino-1,6-diphenyl-hexane-3S,4S-dioldihydrochloride], 8.74. The same measure, in the same setting: the value for `CC(C)[C@H](NC(=O)[C@@H](CC(=O)OC(C)(C)C)Cc1ccccc1)C(=O)N[C@@H](Cc1ccccc1)[C@@H](O)[C@H](O)[C@H](Cc1ccccc1)NC(=O)[C@@H](NC(=O)[C@@H](CC(=O)OC(C)(C)C)Cc1ccccc1)C(C)C` [Example 102, N,N'-bis-<(2R-Benzyl-3-tert.-butoxycarbonyl)-propionyl-L-valyl>-2S,5S-diamino-1,6-diphenylhexane-3R,4R-diol] was 7.42. On to `CC(C)[C@H](NC(=O)[C@@H](CC(=O)N1CCC(NC(=O)OC(C)(C)C)CC1)Cc1ccccc1)C(=O)N[C@@H](Cc1ccccc1)[C@@H](O)[C@H](O)[C@H](Cc1ccccc1)NC(=O)[C@@H](NC(=O)[C@@H](CC(=O)N1CCC(NC(=O)OC(C)(C)C)CC1)Cc1ccccc1)C(C)C` [Example 100, N,N'-bis-<2R-Benzyl-3-(4-tert.-butoxycarbonylamino-1-piperidylcarbonyl)-propionyl-n-valyl>-2S,5S-diamino-1,6-diphenylhexane-3R,4R-diol dihydrochloride], for which the pIC50 is 6.40. On the same count and under the same terms, the value for `CC(C)[C@H](NC(=O)[C@@H](O)CCc1ccccc1)C(=O)N[C@@H](Cc1ccccc1)[C@H](O)[C@@H](O)[C@H](Cc1ccccc1)NC(=O)[C@@H](NC(=O)[C@@H](O)CCc1ccccc1)C(C)C` [Example 94, N,N'-bis-<(2S-Hydroxy-4-phenylbutyryl)-L-valyl>-2S,5S-diamino-1,6-diphenylhexane-3S,4S-diol] was 8.19; that for `CC(C)[C@H](NC(=O)[C@@H](N)Cc1ccccc1)C(=O)N[C@@H](Cc1ccccc1)[C@H](O)[C@@H](O)[C@H](Cc1ccccc1)NC(=O)[C@@H](NC(=O)[C@@H](N)Cc1ccccc1)C(C)C` [Example 17, N,N'-bis-(L-Phenylalanyl-L-valyl)-2S,5S-diamino-1,6-diphenylhexane-3S,4S-diol dihydrochloride] was 9.07. On to `CC(C)[C@H](NC(=O)[C@@H](N)Cc1ccccc1)C(=O)N[C@@H](CCc1ccncc1)[C@@H](O)[C@H](O)[C@H](CCc1ccncc1)NC(=O)[C@@H](NC(=O)[C@@H](N)Cc1ccccc1)C(C)C` [Example 108, N,N'-bis-(L-Phenylalanyl-L-valyl)-3S,6S-diamino-1,8-di(4-pyridyl)-octane-,5R-diol tetrahydrochloride], for which the pIC50 is 6.55.

Turning to `CC(C)[C@H](NC(=O)[C@@H](N)CCC(=O)O)C(=O)N[C@@H](Cc1ccccc1)[C@H](O)[C@@H](O)[C@H](Cc1ccccc1)NC(=O)[C@@H](NC(=O)[C@@H](N)CCC(=O)O)C(C)C` [Example 82, N,N,-bis-<L-Glutamyl-L-valyl>-2S,5S-diamino-1,6-diphenyl-hexane-3S,4S-dioldihydrochloride], the pIC50 was 8.05.

As for `CC(C)[C@H](NC[C@@H](N)Cc1ccccc1)C(=O)N[C@@H](Cc1ccccc1)[C@H](O)[C@@H](O)[C@H](Cc1ccccc1)NC(=O)[C@@H](NC[C@@H](N)Cc1ccccc1)C(C)C` [Example 28, N,N'-bis-(2S-<2S-Amino-3-phenylpropyl>-amino-3-methyl-butanoyl)-2S,5S-diamino-1,6-diphenylhexane-3S,4S-diol tetrahydrochloride], the pIC50 was 5.52.

With `CC(C)[C@H](NC(=O)[C@H](N)Cc1ccccc1)C(=O)N[C@@H](Cc1ccccc1)[C@H](O)[C@@H](O)[C@H](Cc1ccccc1)NC(=O)[C@@H](NC(=O)[C@H](N)Cc1ccccc1)C(C)C` [Example 61, N,N'-bis-<D-Phenylalanyl-L-valyl>-2S,5S-diamino-1,6-diphenylhexane-3S,4S-diol dihydrochloride], the pIC50 was 6.40. Still for that read-out and setting: to `CC(C)[C@H](NC(=O)CN)C(=O)N[C@@H](Cc1ccccc1)[C@@H](O)[C@H](O)[C@H](Cc1ccccc1)NC(=O)[C@@H](NC(=O)CN)C(C)C` [Example 85, N,N'-bis-<Glycyl-L-valyl>-2S,5S-diamino-1,6-diphenyl-hexane-3R,4R-dioldihydrochloride] belongs 8.72; to `CC(C)[C@H](NC(=O)[C@H](CCCCN)NC(=O)OC(C)(C)C)C(=O)N[C@@H](Cc1ccccc1)[C@@H](O)[C@H](O)[C@H](Cc1ccccc1)NC(=O)[C@@H](NC(=O)[C@H](CCCCN)NC(=O)OC(C)(C)C)C(C)C` [Example 11, N,N'-bis-(Nα-<tert.-Butoxycarbonyl>-L-lysyl-L-valyl)-2S,5S-diamino-1,6-diphenyl-hexane-3R,4R-diol dihydrochloride], 9.10. Still for that read-out and setting: the value for `Cc1ccc(S(=O)(=O)N[C@@H](Cc2ccc3ccccc3c2)C(=O)N[C@H](C(=O)N[C@@H](Cc2ccccc2)[C@@H](O)[C@H](O)[C@H](Cc2ccccc2)NC(=O)[C@@H](NC(=O)[C@H](Cc2ccc3ccccc3c2)NS(=O)(=O)c2ccc(C)cc2)C(C)C)C(C)C)cc1` [Example 124, N,N'-bis-<N-Tosyl-β-naphthylalanyl-L-valyl>-2S, 5S-diamino-1,6-diphenylhexane-3R, 4R-diol] was 7.96.

The record behind these values is patent US5712417A, “Inhibitors of retroviral proteases” (Abbott Laboratories, priority 1989, dated 1998).
